Reference: patent publication US20040253308A1, “Surface-treated modafinil particles” (Barr Laboratories, Inc., priority 2003, published 2004)

Tests used:
[1] = test system: monkeys; conditions: single administration (Duteil et al.); cited from earlier work
[2] = Particle size determination (Hiac/Royco system); type: physicochemical; conditions: production lot used for FIG. 1 tablets
Procedure: Particle size can be determined by various methods known to those in the art, such as, but not limited to, laser particle size detectors. Particle size, as defined herein, is determined using a Hiac/Royco system, which includes the Model 9064 particle counter and the Model 3000A liquid syringe sampler (11801 Tech Road, Silver Spring, Md. 20904, U.S.A.).
Particle size was determined using a Hiac/Royco system, which includes the Model 9064 particle counter and the Model 3000A liquid syringe sampler (11801 Tech Road, Silver Spring, Md. 20904, U.S.A.). Samples were prepared in water saturated with modafinil. For each sample preparation, five consecutive readings were measured. The test was done in triplicate and the average was reported.

[3] = test system: mice; conditions: single administration (Duteil et al.); cited from earlier work

With `NC(=O)C[S+]([O-])C(c1ccccc1)c1ccccc1` (stereo not shown) [modafinil, 2-(benzhydrylsulfinyl)acetamide] as the compound, how does the nocturnal activity [1] read?
The nocturnal activity was “increased nocturnal activity”.

And the median particle size ([2]; pretreated modafinil particles)?
The median particle size was 148 μm.

What about the “diameter exceeded by 5% of the total of pretreated modafinil particles” value [2] of the same compound?
The value was 277 μm.

And the locomotor activity [3]?
Its locomotor activity is “increased locomotor activity”.
